{"source": "patent US12311049B2", "about": "“Formulation of ear drops and methods for delivery thereof for treating upper respiratory infections” (priority 2023, dated 2025)", "type_in_all_cases": "cell-based", "key": {"SARS-CoV-2 BA.1": {"test_system": "SARS-CoV-2 BA.1"}, "[1]": {"test_system": "original WA1 viral strain of SARS-CoV-2", "assay": "in vitro infectivity of SARS-CoV-2 to epithelial cells expressing ACE-2 and TMPRSS-2 (virus-NP protein in culture media)", "settings": "MOI 0.01"}, "SARS-CoV-2 BA.2": {"test_system": "SARS-CoV-2 BA.2"}, "SARS-CoV-2 XBB1.5": {"test_system": "SARS-CoV-2 XBB1.5"}, "SARS-CoV-2 XBB": {"test_system": "SARS-CoV-2 XBB"}, "SARS-CoV-2 BA.5": {"test_system": "SARS-CoV-2 BA.5"}}, "data": [{"substance": "hemin", "values": [{"measurement": "dose response of inhibition of SARS-CoV-2 BA.1 (virus-NP protein levels)", "setting": "SARS-CoV-2 BA.1", "value": "dose-dependent inhibition"}, {"measurement": "protection of cells against SARS-CoV-2 BA.1 infection", "setting": "SARS-CoV-2 BA.1", "value": "protected cells"}, {"measurement": "suppression of SARS-CoV-2 infection, original WA1 viral strain", "setting": "[1]", "value": "markedly suppressed"}, {"measurement": "suppression of replication of SARS-CoV-2 BA.2", "setting": "SARS-CoV-2 BA.2", "value": "significantly suppressed replication"}, {"measurement": "suppression of replication of SARS-CoV-2 XBB1.5", "setting": "SARS-CoV-2 XBB1.5", "value": "significantly suppressed replication"}, {"measurement": "suppression of replication of SARS-CoV-2 XBB", "setting": "SARS-CoV-2 XBB", "value": "significantly suppressed replication"}, {"measurement": "suppression of replication of SARS-CoV-2 BA.5", "setting": "SARS-CoV-2 BA.5", "value": "significantly suppressed replication"}]}]}
